Experimental data published in patent US20260158140A1, “METHODS AND MATERIALS FOR IMPROVING T CELL THERAPIES” (Mayo Foundation for Medical Education and Research, priority 2021, published 2026).
Entries after “also recorded” stand apart in the source; their conditions may differ.

What was measured:
[1] = tested on: CD19+ Mantle cell lymphoma cell line, Jeko-1; assay: CART19 cytotoxicity: co-culture of CART19 or UTD T cells with JeKo-1, percent killing; format: cell-based, human
Experimental: FIGS. 1A-1C. […] CART19 and live JeKo-1 were co-cultured at 1:1 ratio for 24 hours in the presence of DMSO or vecabrutinib (1 μM or 10 μM). The percentage of killing were assessed relative to control (****p<0.0001, two-way ANOVA). […] CART19 and irradiated JeKo-1 were co-cultured at 1:1 ratio for 24 hours in the presence of DMSO or vecabrutinib (1 μM or 10 μM). Absolute CD3^+ T cell counts were assessed by flow cytometry (**p<0.01, two-way ANOVA) . […] JeKo-1 target cells were incubated with CART19 at a 5:1 ratio with monensin, hCD49d, and hCD28 in the presence of vecabrutinib at the indicated concentrations for 4 hours. Cells were then analyzed using intracellular flow cytometric assessment of CD107a as a marker for degranulation.
FIG. 10. CART19 cytotoxicity in the presence of Vecabrutinib versus the irreversible BTK inhibitor, Ibrutinib. CART19 or control cells (UTD) were cocultured at different effector-to-target ratio (E:T) with Jeko-1 cell line with vecabrutinib at 1 μM or 10 μM, or ibrutinib at 1 μM. At 24 hours, live Jeko cells numbers was measured by flow cytometry and percent killing was calculated relative to control (*p<0.05, **p<0.01, two-way ANOVA).
To investigate CAR T-specific cytotoxicity, CART19 cells or control UTD T cells were co-cultured with the CD19^+ Mantle cell lymphoma cell line, Jeko-1, at 1:1 ratio and treated with vehicle (DMSO) or vecabrutinib at 1 μM or 10 μM for 24 hours (FIG. 1A).
Measurement of CART19 killing of JeKo-1 cells at different effector to target ratios. […] Results were normalized to target cells incubated with the respective concentration of the BTK inhibitor alone (with no CART19) to eliminate the direct cytotoxic effect of the inhibitor on lymphoma cells without CART19. 10 μM of ibrutinib was not included as it caused 100% killing of CART19 cells and Jeko-1 cells (FIGS. 11A and 11B).

CART19 cells [2] = assay: CART19 proliferation: co-culture with irradiated JeKo-1, absolute CD3+ T cell counts by flow cytometry; format: cell-based, human; conditions: 1 μM
Experimental: FIGS. 11A-11B. Proliferation. […] CART19 and irradiated JeKo-1 were co-cultured at 1:1 ratio for 24 hours in the presence of DMSO or vecabrutinib (1 μM or 10 μM) or ibrutinib (1 μM or 10 μM). Absolute CD3^+T cell counts were assessed by flow cytometry (*p<0.05, ****p<0.0001, two-way ANOVA). FIG. 11B) To further verify effect of BTK inhibition on CART19 proliferation, using different set of donors for CAR T cell production, CART19 and irradiated JeKo-1 were co-cultured at 1:1 ratio for 24 hours in the presence of DMSO or vecabrutinib (10 μM) or ibrutinib (10 μM).
For proliferation assays, CART19 cells were cultured with irradiated CD19^+ cell line Jeko-1 at a 1:1 ratio for 24 hours. Then, the cells were harvested and washed with flow buffer, following by surface staining with anti-hCD3 (eBioscience, San Diego, CA, USA) and LIVE/DEAD™ Fixable Aqua Dead Cell Stain Kit (Invitrogen, Carlsbad, CA, USA). […] Absolute quantification was obtained using volumetric measurement or CountBright absolute counting beads (Invitrogen, Carlsbad, CA, USA). […]
Next, the effect of vecabrutinib on CART19 proliferation was assessed. CART19 cells were cocultured with irradiated JeKo-1 cells for 24 hours in the presence of vecabrutinib (1 μM or 10 μM), and the absolute count of CART19 was measured by flow cytometry and used as a surrogate for proliferation. […]

luciferase+JeKo-1 cells = assay: JeKo-1 xenograft model with CART19 plus oral vecabrutinib; format: in vivo; conditions: CART19 + vecabrutinib 50 mg/kg BID vs CART19 + vehicle, weekly weighing (FIG. 4C)
Experimental: FIGS. 4A-4C. Reversible BTK inhibition in vivo enhances CAR T cell antitumor activity in xenograft models. […] On day-14, NSG mice were injected with 1×10^6 luciferase+JeKo-1 cells intravenously. Gavage began on day −1 with vecabrutinib 50 mg/kg BID or vehicle. Untransduced T cells (UTD) or CART19 were infused on day 0. Mice were imaged weekly to assess the tumor burden. p/s=photons/seconds. […] Mice were bled weekly to measure CART19 by flow cytometry (*p<0.05, one-way ANOVA). FIG. 4C) Vecabrutinib decreases CRS. Mouse weight and wellbeing along with elevation of human cytokines represent a surrogate for the development of CRS intensity in mice receiving CART19. […]
6-8 week old, non-obese diabetic/severe combined immunodeficient female mice bearing a targeted mutation in the interleukin (IL)-2 receptor gamma chain gene (NSG) were obtained from Jackson Laboratories (Jackson Laboratories, Bar Harbor, ME, USA). […] Mice were weighed weekly, and measurements were recorded in grams. Tumor burden was measured weakly by imaging mice with a bioluminescent imager using an IVIS® Lumina S5 Imaging System (PerkinElmer, Hopkinton, MA, USA), and measurements were recorded in total flux (p/s). […] Absolute quantification was obtained using volumetric measurement or CountBright absolute counting beads (Invitrogen, Carlsbad, CA, USA). […]

CART19 cells [3] = assay: RNA-Seq of CART19 cells stimulated with irradiated JeKo-1 (differential expression, Ingenuity Pathway Analysis); format: cell-based, human; conditions: 10 μM vs vehicle
Experimental: CART19 and irradiated Jeko-1 cells were co-cultured at a 1:1 ration for 72 hours with DMSO or 10 μM Vecabrutinib. Three biological replicates of stimulated and unstimulated CART19 cells were included.
RNA was isolated using miRNeasy Micro kit (Qiagen, Gaithersburg, MD, USA) and treated with RNase-Free DNase Set (Qiagen, Gaithersburg, MD, USA). Total RNA was prepped with a SMARTer stranded total RNA-seq kit v2, Pico input mammalian (Takara, Mountain View, CA, USA). Total RNA (three samples per lane) was sequenced on an Illumina HiSeq 4000 (Illumina, San Diego, CA, USA). Library preparation and sequencing were performed by the Medical Genome Facility Genome, Analysis Core (Mayo Clinic, Rochester, MN, USA). Fastq files were viewed in FastQC v0.11.8 to check for quality. Adaptor sequences were removed using Cutadapt v1.18.46. Output files were re-checked for quality and adaptor removal using FastQC v0.11.8. The latest human (GRCh38) reference genomes were downloaded from NCBI. Genome index files were generated using STAR, and the paired end reads were mapped to the genome for each condition. HTSeq was used to generate expression counts for each gene, and DeSeq2 was used to calculate differential expression using adjusted p values <0.05. Heatmap was created using pheatmap (cran.r-project.org/web/packages/pheatmap/index.html). Networks were generated using Ingenuity Pathway Analysis v49932394 (QIAGEN, qiagenbioinformatics.com/products/ingenuity-pathway-analysis). Gene set enrichment analyses were performed using Enrichr (maayanlab.cloud/Enrichr/).
• Biological Replicates: C267, C278, C296 where CART19 cells were generated • Conditions: • Vehicle • 1 μM vecabrutinib • 10 μM vecabrutinib • Activated for 72 hours with Irradiated JeKo-1 (1:1 E:T Ratio) • mRNA was extracted from CART19 cells • RNA sequencing was performed
• FastQC (initial quality check) • Trimmomatic (trim adapters and overrepresented sequences) • FastQC (to confirm removal of the above) • STAR (align to the latest human genome annotation, GRCh38.p13) • HTSeq (obtain counts for each gene) • DESeq2 • Normalized counts across samples • Calculated differential expression between groups • Multiple hypothesis correction (Benjamini-Hochberg procedure)

Row | SMILES | CART19-mediated killing of tumor cells (tumor specific cytotoxicity), percentage of killing relative to control ([1]; CART19:JeKo-1 1:1, 24 hours, 1 μM or 10 μM vs DMSO (FIG. 1A)) | CART19 antigen specific proliferation (absolute CD3+ T cell count) (CART19 cells [2]; irradiated JeKo-1 1:1, 24 hours (FIG. 1B)) | body weight change from day 0 (surrogate for CRS) (luciferase+JeKo-1 cells) | PI3K/AKT signaling z-score (Ingenuity Pathway Analysis) (CART19 cells [3]; 72 hours (FIG. 5F, FIG. 9)) | IL-8 signaling pathway z-score (Ingenuity Pathway Analysis) (CART19 cells [3]; 72 hours (FIG. 9)) | PDGF signaling z-score (Ingenuity Pathway Analysis) (CART19 cells [3]; 72 hours (FIG. 9)) | PTEN signaling pathway Z-score (Ingenuity Pathway Analysis) (CART19 cells [3]; 72 hours (FIG. 9)) | STAT 3 pathway z-score (Ingenuity Pathway Analysis) (CART19 cells [3]; 72 hours (FIG. 9)) | TH1 pathway Z-score (Ingenuity Pathway Analysis) (CART19 cells [3]; 72 hours (FIG. 9)) | killing of CART19 cells and Jeko-1 cells ([1]; 10 μM) [%] | CART19-mediated killing of Jeko-1 lymphoma cells ([1]; different E:T ratios, 24 hours, vecabrutinib 1 μM or 10 μM, ibrutinib 1 μM, normalized to target cells with inhibitor alone (FIG. 10)) | CART19 proliferation (absolute CD3+ T cell count) (CART19 cells [2]; irradiated JeKo-1 1:1, 24 hours (FIG. 11A))
1 | NC(=O)[C@H]1CCN(c2ncnc(N)c2F)C[C@@H]1N1CCC[C@@H](Nc2cc(Cl)cc(C(F)(F)F)c2)C1=O [vecabrutinib] | increases CART19-mediated killing of tumor cells; also recorded: dose-dependent increase | no significant effect | decreases CRS; also recorded: better maintained their body weight | 0.707 | −1.941 | −1.667 | 0.333 | −3.051 | 0.816 |  |  | 
2 | C=CC(=O)N1CCC[C@@H](n2nc(-c3ccc(Oc4ccccc4)cc3)c3c(N)ncnc32)C1 [ibrutinib] |  |  |  |  |  |  |  |  |  | 100 | no effect | no effect
